Results: US20080269326A1, “Use of 1-Phenyl-3-Dimethylamino-propane Compounds for Treating Neuropathic Pain” (GRUENENTHAL GmbH, priority 2007, published 2008)
“And” between values parts separate entries of the source, which are not always exact repeats. Equal values may be shown once.

Experiments:
[1] = system: polyneuropathic pain, withdrawal threshold of rear paw; test: Polyneuropathy (streptozotocin-induced diabetic neuropathy, STZ), withdrawal threshold by Randall and Selitto; format: in vivo, rat
Protocol: Male Sprague Dawley rats (140-180g, Janvier, France) are kept under standard conditions (06.00-18.00 hours light, 18.00-06.00 hours darkness; 20°-24° C. room temperature; 35-70% relative atmospheric humidity, tap water and standard feed as desired) in groups of five animals in Macrolon type 4 cages.
Rats receive a single i.p. dose of Streptozotocin (STZ, Sigma Aldrich Chemie, Germany) or vehicle (0.1 mM citrate buffer, pH 4.6). After one week the blood sugar values are determined and animals treated with STZ that have a blood sugar value of ≧17 mM are classed as diabetic in the experiment. Diabetic animals develop a hypersensitivity in the rear paws. The hypersensitivity to a pressure stimulus can be measured using a pressure pain instrument (algesiometer; Ugo Basile, Italy) according to the method of Randall and Selitto (Arch. Int. Pharmcodyn. 1957; 111: 409-19) in diabetic animals compared to healthy control animals of the same weight, in the third week after STZ treatment. After the animals had become accustomed to the surroundings, the rear right paw of damaged (diabetic) and undamaged (healthy) animals was subjected to increasing pressure on the upper side of the paw until the corresponding paw is withdrawn or the animal gives a vocal response. This value defines the withdrawal threshold of a test time point. Diabetic and healthy animals are tested before and at various times after administration of the substance or vehicle. For each animal the difference between the test value and pre-test is determined, and for the groups, each consisting of ten animals, the result is expressed as the mean value (MW) and standard error of the mean (SEM). The difference between the mean difference values of the diabetic and healthy animals defines the polyneuropathy-induced hypersensitivity. The statistical significance of the effect of a substance is determined on the basis of the difference values with respect to the vehicle group for diabetic and healthy animals by means of bifactorial variance analysis and post hoc analysis according to Bonferroni.

[2] = system: tactile allodynia in Chung animals; test: Chung model (spinal nerve ligature), tactile allodynia, electronic von Frey; format: in vivo; settings: Rattus norvegicus, ip, 0.5 h; rats, i.p., 30 minutes after administration
Protocol: Spinal nerve ligatures according to Kim & Chung (1992 Pain 50, 355-363) were applied to the left L5/L6 spinal nerves of male Spraque-Dawley rats. Four to six days after the operation the tactile threshold baseline (withdrawal threshold) was measured on the ipsilateral and contralateral rear paw by an electronic von Frey anaesthesiometer (IITC Life Science, USA). After the test and measurement of the baseline, morphine, gabapentin and some of the aforementioned compounds used according to the invention were administered. The tactile withdrawal thresholds were measured 30 minutes after the administration. The results are expressed as ED50 and % maximal possible effect (% MPE) on the ipsilateral side, in which the baseline is taken as 0% and the withdrawal threshold of a control group is taken as 100% MPE.

[3] = system: cold allodynia in morphine-tolerant Bennett animals; test: Bennett model cold allodynia in morphine-tolerant animals; format: in vivo, rat
Protocol: Sprague-Dawley rats weighing 140-160 g are provided with four loose ligatures of the right sciatic nerve under nembutal narcosis. The animals develop a hypersensitivity in the paw innervated by the damaged nerve, which after a healing phase of one week is quantified over about four weeks by means of a 4° C. cold metal plate (cold allodynia). The animals are observed for two minutes on this plate and the number of retractive movements of the damaged paw are measured. The effect of the substance is determined with reference to the base value before application of the substance, at four different times over a period of one hour(15, 30, 45 and 60 minutes after application) and the resultant area under the curve (AUD) as well as the inhibition of cold allodynia at the individual measurement points is expressed in percent effect with reference to the vehicle control (AUD) and to the initial value (individual measurement points). The cohort size is n=10.
The underlying question is the action of a test substance having a presumably opioid action mechanism in patients who are tolerant or treatment-resistant to morphine. […] The action of test substances in naive (non-morphine-tolerant) animals and morphine-tolerant animals is compared in Table 4. […] Morphine [10 mg/kg i.p.], Compound 9 [10 and 21.5 mg/kg i.p.], Compound 10 [0.46 and 1 mg/kg i.p.], Compound 4 [21.5 mg/kg i.p.] and Compound 11 [21.5 mg/kg i.p.] were tested analogously to Example 1.

CC[C@@H](c1cccc(O)c1)[C@@H](C)CN(C)C [Compound 9, (1R,2R)-3-(3-dimethylamino-1-ethyl-2-methylpropyl)-phenol]
withdrawal threshold, test value - pre-test value (MW) ([1]; 0.1 mg/kg i.v., Diabetes, 15 min): 1.0 g
withdrawal threshold, test value - pre-test value (MW) ([1]; 0.1 mg/kg i.v., Diabetes, 30 min): -2.0 g
withdrawal threshold, test value - pre-test value (MW) ([1]; 0.1 mg/kg i.v., Diabetes, 45 min): 6.0 g
withdrawal threshold, test value - pre-test value (MW) ([1]; 0.1 mg/kg i.v., Diabetes, 60 min): -2.0 g
withdrawal threshold, test value - pre-test value (MW) ([1]; 0.1 mg/kg i.v., Naive, 15 min): 4.0 g
withdrawal threshold, test value - pre-test value (MW) ([1]; 0.1 mg/kg i.v., Naive, 30 min): -12.0 g
withdrawal threshold, test value - pre-test value (MW) ([1]; 0.1 mg/kg i.v., Naive, 45 min): -2.0 g
withdrawal threshold, test value - pre-test value (MW) ([1]; 0.1 mg/kg i.v., Naive, 60 min): -5.0 g
withdrawal threshold, test value - pre-test value (MW) ([1]; 0.316 mg/kg i.v., Diabetes, 15 min): 35.0 g
withdrawal threshold, test value - pre-test value (MW) ([1]; 0.316 mg/kg i.v., Diabetes, 30 min): 30.0 g
withdrawal threshold, test value - pre-test value (MW) ([1]; 0.316 mg/kg i.v., Diabetes, 45 min): 24.0 g
withdrawal threshold, test value - pre-test value (MW) ([1]; 0.316 mg/kg i.v., Diabetes, 60 min): 16.0 g
withdrawal threshold, test value - pre-test value (MW) ([1]; 0.316 mg/kg i.v., Naive, 15 min): 17.0 g
withdrawal threshold, test value - pre-test value (MW) ([1]; 0.316 mg/kg i.v., Naive, 30 min): -5.0 g
withdrawal threshold, test value - pre-test value (MW) ([1]; 0.316 mg/kg i.v., Naive, 45 min): -5.0 g
withdrawal threshold, test value - pre-test value (MW) ([1]; 0.316 mg/kg i.v., Naive, 60 min): 2.0 g
withdrawal threshold, test value - pre-test value (MW) ([1]; 1 mg/kg i.v., Diabetes, 45 min): 34.0 g
withdrawal threshold, test value - pre-test value (MW) ([1]; 1 mg/kg i.v., Diabetes, 60 min): 27.0 g
withdrawal threshold, test value - pre-test value (MW) ([1]; 1 mg/kg i.v., Naive, 15 min): 42.0 g
withdrawal threshold, test value - pre-test value (MW) ([1]; 1 mg/kg i.v., Naive, 30 min): 28.0 g
withdrawal threshold, test value - pre-test value (MW) ([1]; 1 mg/kg i.v., Naive, 45 min): -2.0 g
withdrawal threshold, test value - pre-test value (MW) ([1]; 1 mg/kg i.v., Naive, 60 min): 7.0 g
inhibition of the polyneuropathically-induced withdrawal threshold reduction ([1]; 1 mg/kg i.v., after 15 minutes and 30 minutes, diabetic animals): complete inhibition
statistically significant minimal effective dose ([1]; i.v., healthy control animals): 1 mg/kg
dosage at which complete inhibition is reached ([1]; i.v., polyneuropathic pain model): 1 mg/kg
statistically significant minimal effective dose ([1]; i.v., rear paw of diabetic rats): 0.316 mg/kg and 0.3 mg/kg
ED50 [2]: 8.15 mg/kg
Cold allodynia (% AUD) Morphine-tolerant animals ([3]; 10 mg/kg i.p.): 37.3 % AUD
Cold allodynia (% AUD) Morphine-tolerant animals ([3]; 21.5 mg/kg i.p.): 36.7 % AUD
